The target of assay [1] is Mcl-1 (Homo sapiens, UniProt Q07820). As to the kind of experiment: FP-based binding assay, Mcl-1. To be noted: for Ki: read-out: Mcl-1 Ki ± SD; for binding to Mcl-1, result in words: FP assay.
Assay [2] deals with T1, Bcl-w (Homo sapiens, UniProt Q92843).
T1 sequence (Q92843 1-155): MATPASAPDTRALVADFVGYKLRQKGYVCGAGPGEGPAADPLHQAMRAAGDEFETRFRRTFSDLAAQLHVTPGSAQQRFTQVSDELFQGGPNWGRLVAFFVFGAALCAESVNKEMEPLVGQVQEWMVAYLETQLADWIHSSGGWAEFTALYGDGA
As to the kind of experiment: FP-based binding assay, Bcl-w. To be noted: for Ki: competitive FP, FAM-BID 2 nM, protein 40 nM, read-out: Bcl-w Ki ± SD.

Assay [3] concerns the target T2, A1/Bfl-1 (Homo sapiens, UniProt Q16548).
T2 sequence (Q16548 1-151): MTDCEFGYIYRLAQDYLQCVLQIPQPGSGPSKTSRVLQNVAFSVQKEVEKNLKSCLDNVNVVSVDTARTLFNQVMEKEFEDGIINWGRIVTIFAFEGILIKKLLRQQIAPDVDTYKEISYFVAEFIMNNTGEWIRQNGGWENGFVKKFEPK
As to the kind of experiment: FP-based binding assay, A1/Bfl-1. The following applies: for Ki: read-out: A1/Bfl-1 Ki ± SD.

In assay [4] the target is Bcl-xL (Homo sapiens, UniProt Q07817, DEL45-85). As to the kind of experiment: FP-based binding assay, Bcl-xL. The following applies: read-out: Bcl-xL Ki ± SD.
Sequence of Bcl-xL (Q07817 other isoform, or with tags, fused parts or gaps DEL45-85): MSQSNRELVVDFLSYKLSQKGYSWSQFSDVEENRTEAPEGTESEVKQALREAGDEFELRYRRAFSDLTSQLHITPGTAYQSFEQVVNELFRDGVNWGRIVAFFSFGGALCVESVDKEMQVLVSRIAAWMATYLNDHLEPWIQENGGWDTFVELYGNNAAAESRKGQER
Where [5] appears, read: competitive FP, Flu-BID 2 nM, Mcl-1 90 nM, read-out: Mcl-1 IC50 ± SD.
[6] abbreviates: competitive FP, Ki calculated from IC50.

Like-named read-outs stand apart in the source and are kept apart here.

Sequence of Mcl-1 (Q07820 171-327): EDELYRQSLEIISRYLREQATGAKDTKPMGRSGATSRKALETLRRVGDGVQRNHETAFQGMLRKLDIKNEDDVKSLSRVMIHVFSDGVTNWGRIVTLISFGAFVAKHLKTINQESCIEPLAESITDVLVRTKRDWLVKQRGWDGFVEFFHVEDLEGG

`O=C(O)CSc1cc(NS(=O)(=O)c2ccccc2)c2ccccc2c1O` [Compound 2, 2-((1-Hydroxy-4-(phenylsulfonamido)naphthalen-2-yl)thio)acetic acid]: the IC50 in assay [1] (setting [5]) was 13 ± 1.62 µM. In addition, the Ki in assay [1] is 3.56 ± 0.45 µM.
For `Cc1ccc(S(=O)(=O)Nc2cc(SCC(=O)O)c(O)c3ccccc23)cc1` [Compound 3], the half-maximal inhibitory concentration (IC50) in assay [1] (setting [5]) was determined as 11.5 ± 0.78 µM. Besides, in assay [1] (setting [6]), the Ki was 3.13 ± 0.22 µM.
The like results for `CCc1ccc(S(=O)(=O)Nc2cc(SCC(=O)O)c(O)c3ccccc23)cc1` [Compound 4] were, in that order, 5.73 ± 1.34 µM and 1.55 ± 0.37 µM.
Take `COc1c(SCC(N)=O)cc(NS(=O)(=O)c2ccc(Br)cc2)c2ccccc12` [Compound 4v, 2-((4-(4-Bromophenylsulfonamido)-1-methoxynaphthalen-2-yl)thio)acetamide]: the “binding to Mcl-1, result in words” value in assay [1] is on record as “loss of binding”. Further, the Ki in assay [1] (setting [6]) is more than 25 µM.
For `CC(C)c1ccc(S(=O)(=O)Nc2cc(SCC(=O)O)c(O)c3ccccc23)cc1` [Compound 5], the Ki in assay [1] (setting [6]) is 1.06 ± 0.17 µM. Moreover, in assay [1] (read-out: Mcl-1 IC50 ± SD), the IC50 amounted to 3.92 ± 0.63 µM.
In the case of `CC(C)(C)c1ccc(S(=O)(=O)Nc2cc(SCC(=O)O)c(O)c3ccccc23)cc1` [Compound 6], the half-maximal inhibitory concentration (IC50) in assay [1] (setting [5]) stood at 3.03 ± 0.17 µM. For the same compound, in assay [1] (setting [6]), the Ki is 0.81 ± 0.04 µM.
As to `O=C(O)CSc1cc(NS(=O)(=O)c2ccc(F)cc2)c2ccccc2c1O` [Compound 7], the IC50 in assay [1] (setting [5]) came to 15.5 ± 3.38 µM. For the same compound, the Ki in assay [1] (setting [6]) was 4.23 ± 0.93 µM.
Consider `O=C(O)CSc1cc(NS(=O)(=O)c2ccc(Cl)cc2)c2ccccc2c1O` [Compound 8, 2-((4-(4-Chlorophenylsulfonamido)-1-hydroxynaphthalen-2-yl)thio)acetic acid], for which, in assay [1] (setting [5]), the IC50 came out at 3.08 ± 0.35 µM. Also, the Ki in assay [1] came to 0.82 ± 0.1 µM.
For `O=C(O)CSc1cc(NS(=O)(=O)c2cccc(Br)c2)c2ccccc2c1O` [Compound 10, 2-((4-(3-Bromophenylsulfonamido)-1-hydroxynaphthalen-2-yl)thio)acetic acid], the IC50 in assay [1] (setting [5]) was determined as 8.64 ± 0.69 µM. In addition, in assay [1] (setting [6]), the Ki is 2.35 ± 0.19 µM.
On to `O=C(O)CSc1cc(NS(=O)(=O)c2ccccc2Br)c2ccccc2c1O` [Compound 11, 2-((4-(2-Bromophenylsulfonamido)-1-hydroxynaphthalen-2-yl)thio)acetic acid], for which, in assay [1] (setting [5]), the IC50 is 16.2 ± 3.12 µM. Also, the Ki in assay [1] worked out at 4.42 ± 0.86 µM.
Compound `O=C(O)CSc1cc(NS(=O)(=O)c2cc3ccccc3s2)c2ccccc2c1O` [Compound 12, 2-((4-(Benzo[b]thiophene-2-sulfonamido)-1-hydroxynaphthalen-2-yl)thio)acetic acid] returned an IC50 in assay [1] of 5.66 ± 1.15 µM. Moreover, the Ki in assay [1] (setting [6]) was 1.54 ± 0.32 µM.
Turning to `O=C(O)CSc1cc(NS(=O)(=O)c2ccc3ccccc3c2)c2ccccc2c1O` [Compound 13], in assay [1] (setting [5]), the IC50 was determined as 2.74 ± 0.18 µM. In addition, the Ki in assay [1] (setting [6]) was 0.73 ± 0.05 µM.
As to `O=C(O)CSc1cc(NS(=O)(=O)c2ccc(-c3ccccc3)cc2)c2ccccc2c1O` [Compound 14, 2-((4-([1,1′-Biphenyl]-4-ylsulfonamido)-1-hydroxynaphthalen-2-yl)thio)acetic acid], the “fold improved binding to Mcl-1 compared to 2” value in assay [1] amounted to 9 fold. In assay [1] (setting [5]), the IC50 turned out to be 1.4 ± 0.36 µM. The Ki in assay [1] turned out to be 0.37 ± 0.1 µM; in assay [2] it was 1.92 ± 0.37 µM; in assay [3], 2.34 ± 0.37 µM; in assay [4], 8.05 ± 0.5 µM.
For the compound `O=C(O)CSc1cc(NS(=O)(=O)c2cccc(-c3ccccc3)c2)c2ccccc2c1O` [Compound 15, 2-((4-([1,1′-Biphenyl]-3-ylsulfonamido)-1-hydroxynaphthalen-2-yl)thio)acetic acid], the “fold improved binding to Mcl-1 compared to 2” value in assay [1] came out at 9 fold. For the same compound, the half-maximal inhibitory concentration (IC50) in assay [1] (setting [5]) is 1.41 ± 0.17 µM. For the same compound, the Ki in assay [1] stood at 0.38 ± 0.03 µM; in assay [2] it was 2.19 ± 0.45 µM; in assay [3], 3.18 ± 0.41 µM; in assay [4] it was 15.1 ± 1.11 µM.
As to `O=C(O)CSc1cc(NS(=O)(=O)c2ccc(-c3ccc(Cl)cc3)cc2)c2ccccc2c1O` [Compound 17, 2-((4-(4′-Chloro-[1,1′-biphenyl]-4-ylsulfonamido)-1-hydroxynaphthalen-2-yl)thio)acetic acid], the IC50 in assay [1] (setting [5]) is 0.68 ± 0.14 µM. Besides, in assay [1] (setting [6]), the Ki is 0.17 ± 0.04 µM.
Take `O=C(O)CSc1cc(NS(=O)(=O)c2ccc(Oc3ccccc3)cc2)c2ccccc2c1O` [Compound 18, 2-((1-Hydroxy-4-(4-phenoxyphenylsulfonamido)naphthalen-2-yl)thio)acetic acid]: the Ki in assay [2] was 1.58 ± 0.35 µM; in assay [3] (competitive FP, FAM-BID 1 nM, protein 4 nM), 3.36 ± 0.56 µM; in assay [4] (competitive FP, FAM-BID 2 nM, protein 50 nM) it was 10.6 ± 1.53 µM.
Take `CCOc1ccc(S(=O)(=O)Nc2cc(SCC(=O)O)c(O)c3ccccc23)cc1` [Compound 19]: the IC50 in assay [1] (setting [5]) worked out at 50.1 ± 4.15 µM. In addition, the Ki in assay [1] (setting [6]) was 13.7 ± 1.14 µM.
The corresponding values for `O=C(O)CSc1cc(NS(=O)(=O)c2ccc(C(=O)O)cc2)c2ccccc2c1O` [Compound 20] are 17.4 µM and 4.76 µM.
Take `CS(=O)(=O)Nc1cc(SCC(=O)O)c(O)c2ccccc12` [Compound 21, 2-((1-Hydroxy-4-(methylsulfonamido)naphthalen-2-yl)thio)acetic acid]: the IC50 in assay [1] (setting [5]) is more than 200 µM. Further, the Ki in assay [1] (setting [6]) was more than 50 µM.
As to `O=C(O)CSc1cc(NC(=O)c2ccc(Br)cc2)c2ccccc2c1O` [Compound 23, 2-((4-(4-Bromobenzamido)-1-hydroxynaphthalen-2-yl)thio)acetic acid], the IC50 in assay [1] (setting [5]) is more than 100 µM. Besides, the Ki in assay [1] (setting [6]) is more than 25 µM.
For `O=C(O)CSc1cc(NC(=O)Cc2ccccc2)c2ccccc2c1O` [Compound 24, 2-((1-Hydroxy-4-(2-phenylacetamido)naphthalen-2-yl)thio)acetic acid], in assay [1] (setting [5]), the concentration for half-maximal inhibition (IC50) was found to be 154 ± 40.2 µM. The Ki in assay [1] (setting [6]) was 42.4 ± 11 µM.
The like results for `O=C(O)CSc1cc(NS(=O)(=O)Cc2ccc(Cl)cc2)c2ccccc2c1O` [Compound 25, 2-((4-((4-Chlorophenyl)methylsulfonamido)-1-hydroxynaphthalen-2-yl)thio)acetic acid] were, in that order, 19.1 ± 1.31 µM and 5.23 ± 0.36 µM.
Take `O=S(=O)(Nc1ccc(O)c2ccccc12)c1ccccc1` [Compound 27, N-(4-Hydroxynaphthalen-1-yl)benzenesulfonamide]: in assay [1], the “binding to Mcl-1, result in words” value is on record as “abolished binding”. The IC50 in assay [1] (setting [5]) is more than 100 µM. In assay [1] (setting [6]), the Ki is more than 25 µM.
The corresponding values for `CCCCSc1cc(NS(=O)(=O)c2ccc(Br)cc2)c2ccccc2c1O` [Compound 30, 4-Bromo-N-(3-(butylthio)-4-hydroxynaphthalen-1-yl)benzenesulfonamide] are “abolished the binding to Mcl-1 protein”, more than 100 µM and more than 25 µM.
For the compound `O=S(=O)(Nc1cc(CCCCO)c(O)c2ccccc12)c1ccc(Br)cc1` [Compound 32, 4-Bromo-N-(4-hydroxy-3-(4-hydroxybutyl)naphthalen-1-yl)benzenesulfonamide], in assay [1], the “fold decreased binding to Mcl-1 compared to 9 (UMI-77)” value worked out at 4 fold and the Ki was 2.18 ± 0.91 µM. For the same compound, the IC50 in assay [1] (setting [5]) is 8.01 ± 3.31 µM.
As to `NC(=O)CSc1cc(NS(=O)(=O)c2ccc(Br)cc2)c2ccccc2c1O` [Compound 33, 2-((4-(4-Bromophenylsulfonamido)-1-hydroxynaphthalen-2-yl)thio)acetamide], the IC50 in assay [1] (setting [5]) came to 6.27 ± 1.28 µM. Moreover, in assay [1], the Ki is 1.71 ± 0.35 µM.
As for `O=C(O)CCSc1cc(NS(=O)(=O)c2ccc3ccccc3c2)c2ccccc2c1O` [Compound 34, 3-((1-Hydroxy-4-(naphthalene-2-sulfonamido)naphthalen-2-yl)thio)propanoic acid], the 50% inhibitory concentration (IC50) in assay [1] (setting [5]) stood at 4.2 ± 1.25 µM. Also, the Ki in assay [1] (setting [6]) was 1.13 ± 0.34 µM.
Regarding `O=C(O)CCSc1cc(NS(=O)(=O)c2cccc3ccccc23)c2ccccc2c1O` [Compound 35], the half-maximal inhibitory concentration (IC50) in assay [1] (setting [5]) was more than 50 µM. For the same compound, the Ki in assay [1] (setting [6]) was more than 12.5 µM.
`COC(=O)CSc1cc(NS(=O)(=O)c2ccc(Br)cc2)c2ccccc2c1OC` [Compound 40d, Methyl 2-((4-(4-bromophenylsulfonamido)-1-methoxynaphthalen-2-yl)thio)acetate]: the IC50 in assay [1] (setting [5]) was more than 800 µM. The Ki in assay [1] (setting [6]) is more than 200 µM.
The corresponding values for `CCCCSc1cc(NS(=O)(=O)c2ccc(Br)cc2)c2ccccc2c1OC` [Compound 40p, 4-Bromo-N-(3-(butylthio)-4-methoxynaphthalen-1-yl)benzenesulfonamide] are more than 800 µM and more than 200 µM.
Regarding `CC[C@H](C)[C@H](NC(=O)[C@H](CC(N)=O)NC(=O)[C@H](CCCNC(=N)N)NC(=O)[C@@H](NC(=O)[C@@H](NC(=O)[C@H](CC(=O)O)NC(=O)[C@H](CCC(=O)O)NC(=O)c1ccc2c(c1)C(=O)OC21c2ccc(O)cc2Oc2cc(O)ccc21)[C@@H](C)CC)[C@@H](C)CC)C(=O)N[C@@H](C)C(=O)N[C@@H](CCCNC(=N)N)C(=O)N[C@@H](Cc1c[nH]cn1)C(=O)N[C@@H](CC(C)C)C(=O)N[C@@H](C)C(=O)N[C@@H](CCC(N)=O)C(=O)N[C@H](C(=O)NCC(=O)N[C@@H](CC(=O)O)C(=O)N[C@@H](CO)C(=O)N[C@@H](CCSC)C(=O)N[C@@H](CC(=O)O)C(=O)N[C@@H](CCCNC(=N)N)C(=O)O)C(C)C` [FAM-BID, reference compound], the Kd in assay [2] (saturation experiments, tracer 2 nM, read-out: Kd of fluorescent probe to Bcl-w) was 0.0055 ± 0.0016 µM; in assay [3] (saturation experiments, tracer 2 nM, read-out: Kd of fluorescent probe to A1/Bfl-1), 0.00083 ± 6e-05 µM.

(Values after US9486422B2, “Small molecule inhibitors of Mcl-1 and the uses of thereof” (THE REGENTS OF THE UNIVERSITY OF MICHIGAN, priority 2011, dated 2016).)
